ChEMBL document CHEMBL3627688, “Structure-based hybridization, synthesis and biological evaluation of novel tetracyclic heterocyclic azathioxanthone analogues as potential antitumor agents” (Eur J Med Chem, 2015)

Experiments:
[1] = Growth inhibition of human LOXIMVI cells assessed as cell growth at 10 uM incubated for 48 hrs by sulforhodamine B assay; type: functional; details: LOX IMVI, read-out: Activity
SNB-19 = assay: Growth inhibition of human SNB19 cells assessed as cell growth at 10 uM incubated for 48 hrs by sulforhodamine B assay; type: functional; details: SNB-19, 48 h, read-out: Activity
[2] = Growth inhibition of human SF539 cells assessed as cell growth at 10 uM incubated for 48 hrs by sulforhodamine B assay; type: functional; details: SF-539, 48 h, read-out: Activity
SW-620 = assay: Growth inhibition of human SW620 cells assessed as cell growth at 10 uM incubated for 48 hrs by sulforhodamine B assay; type: functional; details: SW-620, 48 h, read-out: Activity
KM12 = assay: Growth inhibition of human KM12 cells assessed as cell growth at 10 uM incubated for 48 hrs by sulforhodamine B assay; type: functional; details: KM12, 48 h, read-out: Activity
HCT-15 = assay: Growth inhibition of human HCT15 cells assessed as cell growth at 10 uM incubated for 48 hrs by sulforhodamine B assay; type: functional; details: HCT-15, 48 h, read-out: Activity
HCT-116 = assay: Growth inhibition of human HCT116 cells assessed as cell growth at 10 uM incubated for 48 hrs by sulforhodamine B assay; type: functional; details: HCT-116, 48 h, read-out: Activity
[3] = Growth inhibition of human COLO205 cells assessed as cell growth at 10 uM incubated for 48 hrs by sulforhodamine B assay; type: functional; details: COLO 205, 48 h, read-out: Activity
NCI-H522 = assay: Growth inhibition of human NCI-H522 cells assessed as cell growth at 10 uM incubated for 48 hrs by sulforhodamine B assay; type: functional; details: NCI-H522, 48 h, read-out: Activity
NCI-H23 = assay: Growth inhibition of human NCI-H23 cells assessed as cell growth at 10 uM incubated for 48 hrs by sulforhodamine B assay; type: functional; details: NCI-H23, 48 h, read-out: Activity
[4] = Growth inhibition of human EKVX cells assessed as cell growth at 10 uM incubated for 48 hrs by sulforhodamine B assay; type: functional; details: read-out: Activity
[5] = Growth inhibition of human MOLT4 cells assessed as cell growth at 10 uM incubated for 48 hrs by sulforhodamine B assay; type: functional; details: MOLT-4, 48 h, read-out: Activity
CCRF-CEM = assay: Growth inhibition of human CCRF-CEM cells assessed as cell growth at 10 uM incubated for 48 hrs by sulforhodamine B assay; type: functional; details: read-out: Activity
UACC-62 = assay: Growth inhibition of human UACC62 cells assessed as cell growth at 10 uM incubated for 48 hrs by sulforhodamine B assay; type: functional; details: UACC-62, 48 h, read-out: Activity
OVCAR-3 = assay: Growth inhibition of human OVCAR3 cells assessed as cell growth at 10 uM incubated for 48 hrs by sulforhodamine B assay; type: functional; details: OVCAR-3, 48 h, read-out: Activity
OVCAR-4 = assay: Growth inhibition of human OVCAR4 cells assessed as cell growth at 10 uM incubated for 48 hrs by sulforhodamine B assay; type: functional; details: OVCAR-4, 48 h, read-out: Activity
OVCAR-5 = assay: Growth inhibition of human OVCAR5 cells assessed as cell growth at 10 uM incubated for 48 hrs by sulforhodamine B assay; type: functional; details: OVCAR-5, 48 h, read-out: Activity
ACHN = assay: Growth inhibition of human ACHN cells assessed as cell growth at 10 uM incubated for 48 hrs by sulforhodamine B assay; type: functional; details: read-out: Activity
TK-10 = assay: Growth inhibition of human TK10 cells assessed as cell growth at 10 uM incubated for 48 hrs by sulforhodamine B assay; type: functional; details: TK-10, 48 h, read-out: Activity
UO-31 = assay: Growth inhibition of human UO31 cells assessed as cell growth at 10 uM incubated for 48 hrs by sulforhodamine B assay; type: functional; details: UO-31, 48 h, read-out: Activity
DU-145 = assay: Growth inhibition of human DU145 cells assessed as cell growth at 10 uM incubated for 48 hrs by sulforhodamine B assay; type: functional; details: DU-145, 48 h, read-out: Activity
MCF7 = assay: Growth inhibition of human MCF7 cells assessed as cell growth at 10 uM incubated for 48 hrs by sulforhodamine B assay; type: functional; details: MCF7, 48 h, read-out: Activity
MDA-MB-231 = assay: Growth inhibition of human MDA-MB-231/ATCC cells assessed as cell growth at 10 uM incubated for 48 hrs by sulforhodamine B assay; type: functional; details: MDA-MB-231, 48 h, read-out: Activity
[6] = Growth inhibition of human BT549 cells assessed as cell growth at 10 uM incubated for 48 hrs by sulforhodamine B assay; type: functional; details: BT-549, 48 h, read-out: Activity
PC-3 = assay: Antiproliferative activity against human PC3 cells assessed as cell viability incubated for 72 hrs by MTT assay; type: functional, cell-based; details: PC-3, 72 h
SK-OV-3 = assay: Growth inhibition of human SKOV3 cells assessed as cell growth at 10 uM incubated for 48 hrs by sulforhodamine B assay; type: functional; details: SK-OV-3, 48 h, read-out: Activity
A498 = assay: Growth inhibition of human A498 cells assessed as cell growth at 10 uM incubated for 48 hrs by sulforhodamine B assay; type: functional; details: A498, 48 h, read-out: Activity

SMILES | growth at 10 µM [1] [%] | growth at 10 µM (SNB-19) [%] | growth at 10 µM [2] [%] | growth at 10 µM (SW-620) [%] | growth at 10 µM (KM12) [%] | growth at 10 µM (HCT-15) [%] | growth at 10 µM (HCT-116) [%] | growth at 10 µM [3] [%] | growth at 10 µM (NCI-H522) [%] | growth at 10 µM (NCI-H23) [%] | growth at 10 µM [5] [%] | growth at 10 µM (CCRF-CEM) [%] | growth at 10 µM (UACC-62) [%] | growth at 10 µM (OVCAR-3) [%] | growth at 10 µM (OVCAR-4) [%] | growth at 10 µM (OVCAR-5) [%] | growth at 10 µM (ACHN) [%] | growth at 10 µM (TK-10) [%] | growth at 10 µM (UO-31) [%] | growth at 10 µM (DU-145) [%] | other results
O=C(O)c1c(Sc2ccc(Cl)cc2)c(O)nc2ccccc12 | 90.5 | 97.2 | 110 | 96.9 | 113 | 108 | 104 | 109 | 81.6 | 92.6 | 97.2 | 98.3 | 102 | 121 | 98.4 | 112 | 113 | 118 | 68.9 | 115 | growth at 10 µM [4]: 89.5%; growth at 10 µM (MCF7): 92%; growth at 10 µM (MDA-MB-231): 95.7%; growth at 10 µM [6]: 124%; IC50 (PC-3): > 15 µM
O=c1c2ccc(Cl)cc2sc2c(Cl)nc3ccccc3c12 | 90.5 | 108 | 89 | 99.1 | 111 | 102 | 102 | 112 | 96.8 | 85.1 | 98 | 93.1 | 89.7 | 111 | 87.9 | 100 | 86.8 | 109 | 66.1 | 114 | growth at 10 µM (SK-OV-3): 101%; growth at 10 µM (A498): 106%; growth at 10 µM (MCF7): 82.6%; growth at 10 µM (MDA-MB-231): 84.3%; growth at 10 µM [6]: 110%; IC50 (PC-3): > 15 µM
